# Laboratory results taken from patent EP1220870B1, “METAL-BINDING COMPOUNDS AND USES THEREFOR” (DMI Biosciences, Inc., priority 1999, dated 2001).
# No end group written: not given here.
# Assays:
# Assay type in all cases: biochemical
# [1] = molecular target: Superoxide radical; test: Superoxide dismutase (SOD) activity, xanthine oxidase/NBT assay; settings: for SOD activity (inhibition of NBT reduction): xanthine oxidase assay, pH 10.2, 1.2 µM EDTA
# Description: The SOD activity of copper complexes of the tetrapeptide L-Asp L-Ala L-His L-Lys [SEQ ID NO:1] was assayed. Superoxide radicals were produced using the xanthine oxidase assay of Beauchamp and Fridovich, Anal. Biochem., 44:276-287 (1971). Xanthine oxidase converts xanthine into uric acid, with oxygen acting as an electron acceptor. This causes superoxide radical to be produced. Superoxide radical is able to reduce nitro blue tetrazolium (NBT). Reduced NBT has a λmax of 560 nm. It is known that copper inhibits xanthine oxidase activity (Konstantinova et al., Free Rad. Res. Comms., 12-13:215-220 (1991)), so all experiments containing copper also contained ethylenediaminetetracetic acid (EDTA), a known copper chelator.
# To perform the assay for SOD activity, 0.1 mM xanthine (Sigma Chemical Co.), 25 µM NBT (Sigma Chemical Co.), 50 mM sodium carbonate, and 1.2 µM EDTA (Sigma Chemical Co.), were mixed in a cuvette (all final concentrations, final pH 10.2). The reaction was started by the addition of various amounts of a tetrapeptide-copper complex (tetrapeptide/copper ratios of 1:1 and 2:1) and 20 nM xanthine oxidase (Sigma Chemical Co.). The tetrapeptide-copper complex was prepared by mixing the tetrapeptide and copper (as CuCl2) and allowing the mixture to incubate for 15 minutes at room temperature immediately before addition to the cuvette. The samples were read at time 0 and every 60 seconds for five minutes at 560 nm.
# [2] = molecular target: T1, xanthine oxidase (Bos taurus, UniProt P80457); test: Uric acid production at 295 nm (check for interference with xanthine oxidase activity); settings: concentration of 600 nM; data not shown
# T1 construct: purchased Sigma Chemical Co
# T1 sequence (P80457 whole entry): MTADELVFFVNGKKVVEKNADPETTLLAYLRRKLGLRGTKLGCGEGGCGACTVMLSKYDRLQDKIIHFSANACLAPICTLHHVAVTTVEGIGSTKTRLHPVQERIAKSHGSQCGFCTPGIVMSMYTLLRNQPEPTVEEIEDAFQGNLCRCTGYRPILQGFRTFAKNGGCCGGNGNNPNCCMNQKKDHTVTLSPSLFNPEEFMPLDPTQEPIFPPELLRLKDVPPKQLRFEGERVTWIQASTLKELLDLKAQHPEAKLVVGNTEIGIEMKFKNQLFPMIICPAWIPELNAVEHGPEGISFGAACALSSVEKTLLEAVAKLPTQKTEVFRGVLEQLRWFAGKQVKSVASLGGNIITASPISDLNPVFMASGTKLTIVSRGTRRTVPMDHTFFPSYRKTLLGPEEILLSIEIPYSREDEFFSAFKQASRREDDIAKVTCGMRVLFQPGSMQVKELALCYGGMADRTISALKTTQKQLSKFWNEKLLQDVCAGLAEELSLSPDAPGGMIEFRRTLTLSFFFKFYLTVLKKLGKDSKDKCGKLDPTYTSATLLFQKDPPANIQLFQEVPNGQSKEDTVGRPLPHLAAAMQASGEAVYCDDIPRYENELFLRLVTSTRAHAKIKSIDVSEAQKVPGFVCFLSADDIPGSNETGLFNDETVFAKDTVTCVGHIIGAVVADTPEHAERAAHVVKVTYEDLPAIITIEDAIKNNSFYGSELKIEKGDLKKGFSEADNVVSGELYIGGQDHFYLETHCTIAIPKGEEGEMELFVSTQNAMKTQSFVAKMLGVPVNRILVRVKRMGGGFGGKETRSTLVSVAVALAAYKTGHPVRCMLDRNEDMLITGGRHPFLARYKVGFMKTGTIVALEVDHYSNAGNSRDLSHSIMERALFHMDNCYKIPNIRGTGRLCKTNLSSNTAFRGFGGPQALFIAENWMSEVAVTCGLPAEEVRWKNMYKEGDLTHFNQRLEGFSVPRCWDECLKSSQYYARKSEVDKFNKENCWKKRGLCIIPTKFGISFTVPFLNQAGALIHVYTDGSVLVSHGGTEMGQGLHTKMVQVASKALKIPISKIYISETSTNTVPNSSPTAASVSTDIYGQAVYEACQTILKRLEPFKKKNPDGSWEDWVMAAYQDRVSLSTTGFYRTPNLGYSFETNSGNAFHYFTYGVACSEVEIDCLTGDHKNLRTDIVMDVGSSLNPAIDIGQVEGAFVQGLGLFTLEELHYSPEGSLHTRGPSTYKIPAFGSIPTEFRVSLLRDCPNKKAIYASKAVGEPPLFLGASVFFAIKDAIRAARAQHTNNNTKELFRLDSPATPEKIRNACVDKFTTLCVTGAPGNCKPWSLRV
# Description: Athar et al., Biochem. Mol. Biol. Int., 39(4):813-821 (1996); Ciuffi et al., Pharmacol Res., 38(4):279-287 (1998). This assay is similar to the SOD assay, except that NBT is not present. Instead, uric acid is assayed at 295 nm every 60 seconds for 5 minutes. […] Since superoxide is converted to hydrogen peroxide by the complex, this could help to explain why it is not effective at preventing hydroxyl radical production.
# [3] = system: Superoxide radical; test: Superoxide radical production, NBT reduction with copper and ascorbate; settings: 37°C, read at 560 nm at 5, 15, 30 and 60 minutes, maximum decreased for the 1:1 complex
# Description: Superoxide radical production was measured in solutions containing the 1:1 or 2:1 tetrapeptide-copper complexes. The assay combined techniques from the TBA assay and the xanthine oxidase assay. NBT was added to all test tubes in order to quantitate its reduction by superoxide radical. The samples also contained ascorbate and copper and were incubated at 37°C. At 5,15,30 and 60 minutes, the samples were removed from the incubator and read at 560 nm. In the sample containing the 2:1 tetrapeptide-copper complex, NBT reduction increased over time and reached a maximum at 3 0 minutes.
# [4] = system: hydroxyl radicals; test: Inhibition of hydroxyl radical production, Cu(II)/ascorbic acid deoxyribose TBA assay (Example 10); settings: compound/copper 2:1; for % Inhibition: percent decrease in absorbance compared to buffer alone
# Description: The ability of the compounds listed above to inhibit the generation of hydroxyl radicals was tested as described in Gutteridge and Wilkins, Biochim. Biophys. Acta, 759:38-41 (1983). Briefly, Cu(II) and ascorbic acid were mixed causing the generation of hydroxyl radicals. Then, deoxyribose was added, and the hydroxyl radicals, if present, attacked the deoxyribose to produce fragments. […]. Thus, absorbance at 532 nm is a measure of the damage to deoxyribose and, therefore, of hydroxyl radical formation.
# To perform the assay, CuCl2 in buffer (20 mM KH2PO4 buffer, pH 7.4) and either one of the test compounds in buffer or buffer alone were added to test tubes (final concentration of CuCl2 was 10µM). The test tubes were incubated for 15 minutes at room temperature. Then, 0.5 mM ascorbic acid in buffer and 1.9 mM 2-deoxy-D-ribose in buffer were added to each test tube, and the test tubes were incubated for 1 hour at 37°C. Finally, 1 ml of 1% (w/v) TBA in 50 mM NaOH and 1 ml of concentrated acetic acid were added to each test tube, and the test tubes were incubated in boiling water for 15 minutes. After the test tubes had cooled for 15 minutes, the absorbance at 532 nm was read.
Compound,"times less effective than SOD itself, based on IC50 values ([1]; tetrapeptide/copper ratio 1:1, IC50 = amount that gives 50% inhibition)",SOD activity (inhibition of NBT reduction) [1],SOD activity (inhibition of NBT reduction) ([1]; listed as complex of the tetrapeptide with copper at a ratio of 1:1),inhibition of uric acid production [2] [%],time at which NBT reduction reached a maximum [3] [min],% Inhibition [4],% Inhibition ([4]; listed as Histindine) [%],Absorbance at 532 nm ([4]; second absorbance column (copper only 0.954))
"1:1 tetrapeptide-copper complex: complex of L-Asp L-Ala L-His L-Lys and copper (as CuCl2), tetrapeptide/copper ratio 1:1 (DAHK; also: copper complex, peptide:Cu 1:1 (as CuCl2); UniProt P02768 25-28, looked up, fragment)",about 500 times,true SOD activity,have SOD activity,11,60,–,–,–
"N[C@@H](Cc1c[nH]cn1)C(=O)O [Histidine, histidine]",–,–,–,–,–,about 20%,20.3,0.760
"2:1 tetrapeptide-copper complex: complex of L-Asp L-Ala L-His L-Lys and copper (as CuCl2), tetrapeptide/copper ratio 2:1 (DAHK; also: copper complex, peptide:Cu 2:1 (as CuCl2); UniProt P02768 25-28, looked up, fragment)",–,no SOD activity,–,–,–,–,–,–
